These are literature values, as cited in patent US20100322881A1, “UVB FILTER BASED ON ASCORBIC ACID DERIVATIVES” (MERCK PATENT GESELLSCHAFT, priority 2008, published 2010).

Molecules are shown by their SMILES.

This data set deals with prolyl-4-hydroxylase. The following applies: literature statement; for supporting the activity of the enzyme prolyl-4-hydroxylase: Biochem. J. 1994, 300, 75-79.

Take `CC(=O)Oc1ccccc1C(=O)OC[C@H](OC(=O)c1ccccc1OC(C)=O)[C@H]1OC(=O)C(O)=C1O` [O^5O^6-bis(2-acetoxybenzoyl) L-ascorbate]: the “supporting the activity of the enzyme prolyl-4-hydroxylase” value is “capable of supporting the activity”. The “affinity to the enzyme” value (compared with the monosubstituted compound) is “lower affinity”. Take `CC(=O)Oc1ccccc1C(=O)OC[C@H](O)[C@H]1OC(=O)C(O)=C1O` [O^6-(2-acetoxybenzoyl) L-ascorbate]: the “supporting the activity of the enzyme prolyl-4-hydroxylase” value is “capable of supporting the activity”.
